Experimental findings from US9670190B2, “Pyridinyl and pyrimidinyl sulfonamide derivatives as chemokine receptor modulators” (Allergan, Inc., priority 2013, dated 2017) are described below.

SMILES strings stand for the structures.

For the assay, the target named is T1, CCR2 (Homo sapiens, UniProt P41597).
T1 construct: expressed in transfected cells
Nature of the assay: CCR2 calcium activity assay (FLIPR Tetra) in HEK-Gqi5 cells stably expressing CCR2. It counts as cell-based. The conditions noted are these: calcium activity on FLIPR Tetra, chemokine positive control agonist; for IC50: read-out: IC50 (nM), activity at CCR2 receptor. How it is done: HEK-Gqi5 cells stably expressing CCR2 were cultured in DMEM high glucose, 10% FBS, 1% PSA, 400 μg/ml geneticin and 50 μg/ml hygromycin. Appropriate positive control chemokines (MCP-1, MIP1A or RANTES) was used as the positive control agonist for screening compound-induced calcium activity assayed on the FLIPR^Tetra. The drug plates were prepared in 384-well microplates using the EP3 and the MultiPROBE robotic liquid handling systems. Compounds were synthesized and tested for CCR2 activity.

T1 sequence (P41597 whole entry, species assumed): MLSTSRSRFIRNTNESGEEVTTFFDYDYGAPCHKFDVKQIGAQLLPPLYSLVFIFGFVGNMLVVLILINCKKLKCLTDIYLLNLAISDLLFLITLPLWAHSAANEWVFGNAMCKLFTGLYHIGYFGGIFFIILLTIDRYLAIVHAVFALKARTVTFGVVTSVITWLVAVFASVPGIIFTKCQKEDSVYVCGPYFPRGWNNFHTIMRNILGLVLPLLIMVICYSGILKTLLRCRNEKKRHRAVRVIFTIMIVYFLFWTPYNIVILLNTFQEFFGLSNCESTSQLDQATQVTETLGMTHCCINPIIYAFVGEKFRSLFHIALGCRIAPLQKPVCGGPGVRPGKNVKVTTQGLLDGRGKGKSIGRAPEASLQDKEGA

Regarding `O=S(=O)(Nc1cc(Cl)cnc1SCc1ccccc1)c1ccc(Cl)c(Cl)c1` [Compound 7, N-[2-(benzylsulfanyl)-5-chloropyridin-3-yl]-3,4-dichlorobenzenesulfonamide], the “% ANTAGONISM” value is reported as 46%.
Take `O=S(=O)(Cc1ccccc1)c1ncc(Cl)cc1NS(=O)(=O)c1ccc(Cl)s1` [Compound 11, N-[2-(benzylsulfonyl)-5-chloropyridin-3-yl]-5-chlorothiophene-2-sulfonamide]: the “% ANTAGONISM” value was 89% and the IC50 came to 263 nM.
With `O=S(=O)(Nc1cc(Cl)cnc1[S+]([O-])Cc1ccccc1)c1ccc(Cl)s1` (centres unmarked) [Compound 12, N-[2-(benzylsulfinyl)-5-chloropyridin-3-yl]-5-chlorothiophene-2-sulfonamide], the “% ANTAGONISM” value amounted to 77%.
In the case of `O=S(=O)(Nc1ccncc1SCc1ccccc1)c1cc2ccccc2o1` [Compound 4, N-[3-(benzylsulfanyl)pyridin-4-yl]-1-benzofuran-2-sulfonamide], the “% ANTAGONISM” value was determined as 100% and the IC50 was found to be 485 nM.
With `O=S(=O)(Nc1cncnc1[S+]([O-])Cc1ccccc1)c1cc2ccccc2o1` (centres unmarked) [Compound 3, N-[4-(benzylsulfinyl)pyrimidin-5-yl]-1-benzofuran-2-sulfonamide], the “% ANTAGONISM” value is 95% and the IC50 came out at 588 nM.
Consider `O=S(=O)(Cc1ccccc1)c1ncncc1NS(=O)(=O)c1cc2ccccc2o1` [Compound 2, N-[4-(benzylsulfonyl)pyrimidin-5-yl]-1-benzofuran-2-sulfonamide], for which the “% ANTAGONISM” value stood at 101% and the IC50 was found to be 135 nM.
In the same order, the values of `O=S(=O)(Nc1cc(Cl)cnc1[S+]([O-])Cc1ccccc1)c1ccc(Cl)c(Cl)c1` (centres unmarked) [Compound 10, N-[2-(benzylsulfinyl)-5-chloropyridin-3-yl]-3,4-dichlorobenzenesulfonamide] are 87% and 119 nM.
As to `O=S(=O)(Cc1ccccc1)c1ncc(Cl)cc1NS(=O)(=O)c1ccc(Cl)c(Cl)c1` [Compound 9, N-[2-(benzylsulfonyl)-5-chloropyridin-3-yl]-3,4-dichlorobenzenesulfonamide], the “% ANTAGONISM” value is listed as 97% and the IC50 turned out to be 37 nM.
For the molecule `O=S(=O)(Nc1cc(Cl)cnc1SCc1ccccc1)c1ccc(Cl)s1` [Compound 8, N-[2-(benzylsulfanyl)-5-chloropyridin-3-yl]-5-chlorothiophene-2-sulfonamide], the “% ANTAGONISM” value is reported as 60%.
With `O=S(=O)(Cc1ccccc1)c1cnccc1NS(=O)(=O)c1cc2ccccc2o1` [Compound 6, N-[3-(benzylsulfonyl)pyridin-4-yl]-1-benzofuran-2-sulfonamide], the “% ANTAGONISM” value came to 95% and the IC50 worked out at 17 nM.
Regarding `O=S(=O)(Nc1cc[n+]([O-])cc1SCc1ccccc1)c1cc2ccccc2o1` [Compound 5, N-[3-(benzylsulfanyl)-1-oxidopyridin-4-yl]-1-benzofuran-2-sulfonamide], the “% ANTAGONISM” value was 94% and the IC50 amounted to 8 nM.
Regarding `O=S(=O)(Nc1cncnc1SCc1ccccc1)c1cc2ccccc2o1` [Compound 1, N-[4-(benzylsulfanyl)pyrimidin-5-yl]-1-benzofuran-2-sulfonamide], the “% ANTAGONISM” value was found to be 44%.

By IC50 is commonly meant the concentration that gives 50% inhibition.
